Our source for the viability values is paper PMC12040169 (PLOS Biology, 2025).

The data set in a line: in vitro. To be noted: human, hela cells, % viability.

The viability is a read-out of living cells in per cent, often relative to untreated cells. `COc1ccc(C[C@@H]2NC(=O)[C@H]3CN(C(=O)c4cccc(F)c4)CCN3C2=O)cc1` [CBK289604]: the viability at 28.5 h, 10 µM stood at 88.8%.
On to `CN1N=C(N)c2cn([C@@H]3O[C@H](COP(=O)(O)O)[C@H](O)C3O)c3ncnc1c23` (stereo partly drawn) [CBK201301], for which the viability at 28.5 h, 10 µM was found to be 73.9%.
With `CC(=O)N1CC(C(=O)Nc2ccccc2Cc2ccccc2)Oc2ccccc21` (stereo not drawn) [CBK297525], the viability at 28.5 h, 10 µM turned out to be 88.6%.
With `CCOC(=O)N1CCC(NS(=O)(=O)c2ccc(Cl)c(Cl)c2Cl)CC1` [CBK045471], the viability at 28.5 h, 10 µM came out at 96.4%.
Same read-out and setting: the same measure for `O=C(CNc1ccc2ccccc2c1)N/N=C/c1cc2c(cc1[N+](=O)[O-])OCO2` [CBK261126]: 83.1%.
On to `OCCNC(=S)Nc1ccc(Cl)cc1Cl` [CBK265330], for which the viability at 28.5 h, 10 µM turned out to be 106%.
For `COc1ccc([N+](=O)[O-])cc1N(CC(=O)Nc1cccc2ccccc12)S(C)(=O)=O` [CBK268197], the viability at 28.5 h, 10 µM is 84.2%.
Same read-out and setting: under `CCOc1ccc(C(C)(CC(N)=O)C(=O)O)cc1` (stereo not drawn) [CBK286778] stands 97.9%; under `Cc1noc(C)c1C(=O)N1CCCCCC1c1cnn(C)c1` (stereo not drawn) [CBK284974], 98.8%.
`CN(C)C(=O)c1ccc(Cn2nc(C(=O)NC3CC3)c3ccccc32)cc1` [CBK047720]: the viability at 28.5 h, 10 µM (bulk resorufin, single well) was 93.1%.
`CCN(CC)C(=O)C1CCCN(C(=O)NCc2cnc(C)cn2)C1` (stereo not drawn) [CBK156122]: the viability at 28.5 h, 10 µM came to 101%.
Take `CCCOc1ccc(Br)cc1/C=N/O` [CBK288491]: the viability at 28.5 h, 10 µM came to 110%.
For `O=C(N[C@@H]1COCC[C@@H]1OCC1CC1)c1cccc2c1NCCC2` [CBK307227], the viability at 28.5 h, 10 µM was determined as 102%.
For the molecule `CCNC(=O)N1CCC2(CC1)OCc1cc(-c3ccc(Cl)cc3)ccc1O2` [CBK060737], the viability at 28.5 h, 10 µM (bulk resorufin, single well) was 90.1%.
Consider `COc1cnc(-c2ccccc2OC)c(NC(=O)Cc2ccccc2)n1` [CBK145260], for which the viability at 28.5 h, 10 µM came out at 95.8%.
The same measure, in the same setting: under `COc1ccc(-n2cnnn2)cc1` [CBK001946] stands 99%.
Regarding `COC(=O)c1csc2c1NC1(CCC1)[C@@H]1C[C@@H](O)[C@@H](O)[C@H]21` [CBK303255], the viability at 28.5 h, 10 µM was 119%.
For `CN(C)CC(C)(C)CNC=C1C(=O)CC(C)(C)CC1=O` [CBK262046], the viability at 28.5 h, 10 µM is 99.9%.
Take `O=C(Nc1nonc1-c1nc2ccccc2n1CCOC(=O)c1ccc(F)cc1)c1ccc(F)cc1` [CBK062653]: the viability at 28.5 h, 10 µM was 102%.
Take `COc1ccc(N2CCN(CCNC(=O)Nc3ccc(Cl)cc3)CC2)cc1` [CBK268725]: the viability at 28.5 h, 10 µM worked out at 94.9%.
In the case of `O=C(C1CCC1)N1CCC(c2nc(C3CCCC3)no2)C1` (stereo not drawn) [CBK285434], the viability at 28.5 h, 10 µM was 88.1%.
`O=C(CCn1c(-c2cccnc2)cc2cccnc21)NC1CC1` [CBK282622]: the viability at 28.5 h, 10 µM is 95.9%.
In the case of `CN(C)C(=O)c1ccc(-c2ccc(OC3CCN(C(=O)CCC(=O)N4CCCC4)CC3)nc2)cc1` [CBK155051], the viability at 28.5 h, 10 µM is 108%.
Regarding `O=C(Nc1ccc([C@@H](O)[C@H]2COCC(=O)N2Cc2ccccc2F)cc1)c1cnccn1` [CBK289060], the viability at 28.5 h, 10 µM worked out at 83.2%.
Take `O=c1[nH]c(=O)c2cc(S(=O)(=O)N3CCC(c4ccccc4)C3)ccc2[nH]1` (stereo not drawn) [CBK286382]: the viability at 28.5 h, 10 µM amounted to 105%.
Turning to `COc1ccc(C(C)C)cc1-c1cncc(NCC(C)(C)CO)n1` [CBK065206], the viability at 28.5 h, 10 µM amounted to 106%.
The same measure, in the same setting: the same measure for `COc1ccc(-c2c(C(F)(F)F)oc3cc(OC(=O)c4cccc(C)c4)ccc3c2=O)cc1OC` [CBK263907]: 99.3%.
For `CCc1cc(OCc2ccc(Cn3nc(NC(C)=O)c4ccccc43)cc2)c2ccccc2n1` [CBK048402], the viability at 28.5 h, 10 µM came to 91%.
On to `Cn1nccc1NS(=O)(=O)c1cc(C(=O)O)c(Cl)cc1F` [CBK062712], for which the viability at 28.5 h, 10 µM was 106%.
In the case of `COC(C)c1nc(C)c(C(=O)NC2CCCN(c3ccn(C)n3)C2=O)s1` (stereo not drawn) [CBK305454], the viability at 28.5 h, 10 µM is 100%.
As for `CCn1nc(C)c(CN(C)Cc2nc3ccccc3[nH]2)c1C` [CBK282126], the viability at 28.5 h, 10 µM came out at 93.9%.
For the molecule `CC1(C)CC(=O)C2=C(C1)CC1(C)CC(C)(C)CC2(Nc2ccccn2)C1` (stereo not drawn) [CBK022425], the viability at 28.5 h, 10 µM turned out to be 121%.
Same read-out and setting: under `O=C(NCC1COc2ccccc2O1)c1ccc(-c2ccc(OC(F)(F)F)cc2)nc1` (stereo not drawn) [CBK156214] stands 88.3%.
As for `N#Cc1ccccc1NC(=O)CN1CCCCCC1` [CBK270088], the viability at 28.5 h, 10 µM turned out to be 87.8%.
On to `COc1ccc(-c2noc(CSc3nnc(-c4c[nH]c5ccccc45)n3C)n2)cc1OC` [CBK268644], for which the viability at 28.5 h, 10 µM stood at 88.8%.
With `O=C(NCc1cccc(C(F)(F)F)c1)N1CCN(CCN2CCOCC2)CC1` [CBK155671], the viability at 28.5 h, 10 µM stood at 98.9%.
Regarding `Fc1ccc(CNCCN2CCOCC2)cc1` [CBK278192C], the viability at 28.5 h, 10 µM worked out at 105%.
The same measure, in the same setting: the same measure for `Cc1ccc(OC(C)C(=O)NNC(=O)c2ccc([N+](=O)[O-])cc2)cc1` (stereo not drawn) [CBK269065]: 104%.
With `COc1ccc(N2CCN(c3cc(-c4ccccc4OCc4ccccc4)ncn3)CC2)cc1OC` [CBK091024], the viability at 28.5 h, 10 µM amounted to 97.5%.
Same read-out and setting: the same measure for `CN1CCN(Cc2ccccc2[N+](=O)[O-])CC1` [CBK261524]: 85.5%.
The same measure, in the same setting: under `O=C(CN1CCCC1)N1CCC(c2cccc(Cc3ccc(C(F)(F)F)cc3)n2)CC1` [CBK286215] stands 106%; under `O=C(NCCN1CCOCC1)c1cccc(S(=O)(=O)N2CCCCCC2)c1` [CBK266668], 97.3%.
As to `O=c1[nH]c2cc3nn[nH]c3cc2[nH]1` [CBK018154], the viability at 28.5 h, 10 µM turned out to be 99.9%.
Same read-out and setting: the same measure for `O=C(Nc1ccncc1)OCCNC(=O)c1ccncc1` [CBK262150]: 102%; for `Cc1noc(C)c1C(=O)Nc1cnc(-c2cccc(C(F)(F)F)c2)c(-c2cccnc2)n1` [CBK036727]: 96.8%.
Regarding `COc1ccc(CN(C)C2CCOCC2)cc1Cn1cncn1` [CBK306728], the viability at 28.5 h, 10 µM amounted to 93.9%.
The same measure, in the same setting: under `Nc1nnc2c(C(F)(F)F)nc3ccccc3n12` [CBK021345] stands 82.1%; under `OC1(c2cccnc2F)CCN(Cc2cc(F)ccc2F)CC1` [CBK284371], 83.6%; under `CN1CCC[C@H]1COc1ncccc1OCCO` [CBK042185], 92.6%.
Take `Cn1nc(-c2cccs2)cc1[C@H]1CN2CC[C@H]1C[C@@H]2CNC(=O)c1ccco1` [CBK289100]: the viability at 28.5 h, 10 µM was found to be 86.6%.
For the molecule `COc1ccc(CN2CCN(C(=O)c3ccccc3F)CC2)cc1OCc1ccccc1` [CBK263479], the viability at 28.5 h, 10 µM stood at 80.7%.
As for `Clc1ccccc1-c1nccnc1OC(c1ccccc1)c1ccccc1` [CBK107002], the viability at 28.5 h, 10 µM turned out to be 92.9%.
For `C[C@]12CN(Cc3cccs3)C[C@H]1NC(=O)c1ccccc1C2=O` [CBK284702], the viability at 28.5 h, 10 µM worked out at 89.2%.
Same read-out and setting: the same measure for `O=C(NCc1ccc(F)cc1)NC(=O)C1CCN(CCc2ccc(Br)cc2)CC1` [CBK034836]: 95.2%.
As for `CC(C)c1nnc(SCc2ccc(CSc3nnc(C(C)C)n3N)cc2)n1N` [CBK267911], the viability at 28.5 h, 10 µM turned out to be 101%.
For the molecule `COc1ccc(C(=O)N[C@H]2C[C@H]3C(=O)Nc4ccc(-c5ccsc5)cc4C(=O)N3C2)cc1` [CBK289362], the viability at 28.5 h, 10 µM turned out to be 91.7%.
On to `CC(C)Nc1nccnc1Sc1cccs1` [CBK089490], for which the viability at 28.5 h, 10 µM came to 123%.
Take `CC(Oc1cccc(Cl)c1)C(=O)Nc1ncccn1` (stereo not drawn) [CBK265450]: the viability at 28.5 h, 10 µM was 90.2%.
The same measure, in the same setting: under `Cc1ccc(Nc2nc(N/N=C/c3ccccc3)nc(N3CCC(Cc4ccccc4)CC3)n2)cc1` [CBK262296] stands 76.7%.
As to `O=C(COc1cc(Cl)c(Cl)cc1Cl)N1CCN(c2ccc([N+](=O)[O-])cc2)CC1` [CBK263783], the viability at 28.5 h, 10 µM was 97.1%.
`O=C(Nc1nccs1)c1c(O)n(Cc2ccccc2)c2ccccc2c1=O` [CBK291173]: the viability at 28.5 h, 10 µM turned out to be 96.6%.
As to `Cc1ccc2oc3c(c(=O)c2c1)C(c1ccc(OCC(N)=O)cc1)N(Cc1ccc2c(c1)OCO2)C3=O` (stereo not drawn) [CBK267189], the viability at 28.5 h, 10 µM is 91.3%.
Still for that read-out and setting: under `O=C(C1CCCC1)N1C2CCC1CC(O)(c1cccnc1F)C2` (stereo not drawn) [CBK284421] stands 88.4%; under `CC(C)N1CCC(C(=O)NC(=O)NCCOc2cccc3ccccc23)CC1` [CBK034807], 91.9%; under `Sc1nnc(COc2ccc(-c3ccccc3)cc2)n1-c1ccccc1` [CBK264964], 105%.
For `CN(C)S(=O)(=O)Nc1ccc2[nH]ccc2c1` [CBK156321], the viability at 28.5 h, 10 µM was 92.2%.
On to `CN(Cc1cc(Br)cs1)C(=O)CCN1C(=O)COc2ccccc21` [CBK298308], for which the viability at 28.5 h, 10 µM came out at 90%.
Same read-out and setting: under `NC1OC(COC(=O)c2ccccc2)C(OC(=O)c2ccccc2)C1OC(=O)c1ccccc1` (stereo not drawn) [CBK010282] stands 95.3%.
Consider `CN(C)CC1CCCCN1C(=O)C1CC(=O)N(c2cccc(F)c2)C1` (stereo not drawn) [CBK282192], for which the viability at 28.5 h, 10 µM was determined as 108%.
For `CN1C2CCC1CC(OC(=O)CNC1CCCCC1)C2` (stereo not drawn) [CBK278161C], the viability at 28.5 h, 10 µM came to 93.6%.
For `CC(=O)N(C)[C@H]1CC[C@]2(CC1)CNC(=O)c1ccccc1O2` [CBK281682], the viability at 28.5 h, 10 µM was 101%.
On to `CCC(Sc1ccc2nnc(-c3ccc(C)cc3)n2n1)C(=O)O` (stereo not drawn) [CBK287524], for which the viability at 28.5 h, 10 µM stood at 104%.
`O=C(c1ccc2ccccc2n1)N1CCc2ccccc21` [CBK200404]: the viability at 28.5 h, 10 µM worked out at 94%.
`CN1CCN(S(=O)(=O)c2ccc(NC(=O)c3cc(-c4ccncc4)nc4ccc(Cl)cc34)cc2)CC1` [CBK267730]: the viability at 28.5 h, 10 µM stood at 98.6%.
For `CC(C)C(=O)N1CC2(CCN(CCCCC3NC(=O)NC3=O)CC2)c2ccccc21` (stereo not drawn) [CBK131471], the viability at 28.5 h, 10 µM was 111%.
Same read-out and setting: under `Cc1ccc(CNC(=O)c2nnc(C(=O)Nc3cccc(Cl)c3)s2)o1` [CBK294404] stands 95.2%; under `Cc1cc(C(=O)NCCn2ccnc2C)c2cccc(Cl)c2n1` [CBK282460], 95.6%; under `Cc1ccc(Nc2cncc(-c3ccc(O)cc3)n2)cc1Cl` [CBK107802], 99.9%.
